# Measured values as given in the Biogen ADME set (Fang et al. 2023).
# Settings: for aqueous solubility: pH 6.8
Structure (SMILES),MDR1-MDCK efflux ratio,"intrinsic clearance, human liver microsomes","intrinsic clearance, rat liver microsomes",aqueous solubility
COc1cc(C(=O)O)c(N)c(OC)c1OC,1.69,≤ 4.74 mL/min/kg,≤ 10.7 mL/min/kg,53.9 µg/mL
O=S(=O)(NCC1C2CC3CC(C2)CC1C3)C1CCOCC1 (stereo not drawn),–,–,–,58.2 µg/mL
O=C(CC(=O)N1CCCC1)N1CCCC1,2.82,≤ 4.74 mL/min/kg,≤ 10.7 mL/min/kg,30.7 µg/mL
Cc1cc(C)c(C#N)c(N2CCN(CC(=O)Nc3ccccc3Cl)CC2)n1,0.804,125 mL/min/kg,804 mL/min/kg,1.09 µg/mL
c1cc(CNc2ncc(-c3cnccn3)c(C3CC3)n2)ccn1,1.35,25 mL/min/kg,1310 mL/min/kg,–
Cc1cccc2sc(NC(=O)c3cccnc3)nc12,0.329,–,–,0.52 µg/mL
CCn1c(CN2CCCCCC2)nc2ccccc2c1=O,0.561,25.7 mL/min/kg,2240 mL/min/kg,–
Cc1cnc(Nc2ccc(OCCN3CCCC3)cc2)nc1Nc1cccc(S(=O)(=O)NC(C)(C)C)c1,–,34.1 mL/min/kg,209 mL/min/kg,–
c1cncc(-c2nnc3n2[C@H]2CN(Cc4cccs4)C[C@H]2CC3)c1,2.69,7.21 mL/min/kg,343 mL/min/kg,–
Cc1nc(O)cc(C2CCN(c3cnccn3)CC2)n1,42,≤ 4.74 mL/min/kg,20.1 mL/min/kg,50.7 µg/mL
COc1cc(CN[C@@H]2CCC[C@H]2Cc2cc(C)no2)ccc1OC(C)C,–,66.8 mL/min/kg,2380 mL/min/kg,–
N#Cc1cccc(-c2ccc(=O)n3c2[C@@H]2C[C@@H](CN(Cc4ccc(F)cc4)C2)C3)c1,6.11,218 mL/min/kg,1470 mL/min/kg,32.4 µg/mL
CC(C)CCCNC(=O)c1[nH]ncc1Br,0.579,16.5 mL/min/kg,742 mL/min/kg,–
CC(C)(O)CNc1ncc(-c2ccnc(Nc3ccnc(Cl)c3)n2)c(CC2CC2)n1,10.5,23.6 mL/min/kg,149 mL/min/kg,21.9 µg/mL
CC(C)n1c(=O)cc(N[C@@H](C)c2ccccc2)[nH]c1=O,58.2,≤ 4.74 mL/min/kg,30.4 mL/min/kg,–
CCCCCCCCc1ccc(CC[C@](N)(CO)COP(=O)(O)O)cc1,–,7.61 mL/min/kg,–,–

Structure (SMILES),MDR1-MDCK efflux ratio,"intrinsic clearance, human liver microsomes","intrinsic clearance, rat liver microsomes",aqueous solubility
CN(C)C(=O)Cn1cc(C(=O)O)ccc1=O,–,≤ 4.74 mL/min/kg,≤ 10.7 mL/min/kg,21.1 µg/mL
c1ccc2nc(OC3CCNCC3)cnc2c1,–,≤ 4.74 mL/min/kg,183 mL/min/kg,–
Cc1ccc(C(=O)Nc2ccccc2C#N)cc1,–,88.2 mL/min/kg,173 mL/min/kg,10.4 µg/mL
C/C(=C/COc1c2occc2cc2ccc(=O)oc12)CO,0.662,18.3 mL/min/kg,442 mL/min/kg,–
CN1CCN(C(=O)c2cc(Br)cnc2Cl)c2cnccc21,4.54,9.09 mL/min/kg,90.8 mL/min/kg,57.8 µg/mL
N#Cc1c(O)c(Cl)c(Cl)c(C#N)c1Cl,–,–,–,31.3 µg/mL
Cc1cc(CN2CCN(c3ncccn3)CC2)on1,0.608,≤ 4.74 mL/min/kg,91.5 mL/min/kg,36.7 µg/mL
Cc1cccc(C(=O)N(C)CCc2cnccn2)c1,0.8,13 mL/min/kg,141 mL/min/kg,30.4 µg/mL
O=C(Nc1nc2ccccc2[nH]1)C1CCCCC1,0.721,15.5 mL/min/kg,189 mL/min/kg,2.44 µg/mL
O=C(O)c1ccc(COc2ccc(/C=C3\SC(=O)N(Cc4ccc(F)cc4)C3=O)cc2)cc1,–,–,–,0.99 µg/mL
C(=C\c1ccccc1)/CNCc1ccc2c(c1)OCO2,0.337,38.9 mL/min/kg,573 mL/min/kg,40.1 µg/mL
CCN1CCc2ncnc(N(C)Cc3ccc4c(c3)OCCO4)c2C1,0.787,114 mL/min/kg,448 mL/min/kg,38.9 µg/mL
COCC(=O)N1CC[C@H](c2nnc(-c3ccc(C)cc3)o2)C1,1.36,≤ 4.74 mL/min/kg,≤ 10.7 mL/min/kg,52.7 µg/mL
C[C@@H](c1ccc(F)cc1)n1nnc2cnc3ccc(-c4ccc5ocnc5c4)cc3c21,–,–,–,0.47 µg/mL
CC(=O)Nc1ccnn1C1CCN(Cc2ccccc2C#Cc2ccccc2)CC1,26.5,82.5 mL/min/kg,507 mL/min/kg,25.8 µg/mL
